Laboratory results reported in patent US10919903B2, “Nitrogen-containing heterocyclic compounds as FXR modulators” (Hepagene Therapeutics (HK) Limited, priority 2016, dated 2021).

Columns and labels:
[1] = molecular target: T1, FXR (Homo sapiens, UniProt Q96RI1); test: FXR Transactivation Assay (GAL4 luciferase reporter, pBIND-FXR in HEK293T); format: cell-based; details: HEK293T cells
T1 construct: expressed in transfected cells; host or cells: HEK293T
T1 sequence (Q96RI1 1-486): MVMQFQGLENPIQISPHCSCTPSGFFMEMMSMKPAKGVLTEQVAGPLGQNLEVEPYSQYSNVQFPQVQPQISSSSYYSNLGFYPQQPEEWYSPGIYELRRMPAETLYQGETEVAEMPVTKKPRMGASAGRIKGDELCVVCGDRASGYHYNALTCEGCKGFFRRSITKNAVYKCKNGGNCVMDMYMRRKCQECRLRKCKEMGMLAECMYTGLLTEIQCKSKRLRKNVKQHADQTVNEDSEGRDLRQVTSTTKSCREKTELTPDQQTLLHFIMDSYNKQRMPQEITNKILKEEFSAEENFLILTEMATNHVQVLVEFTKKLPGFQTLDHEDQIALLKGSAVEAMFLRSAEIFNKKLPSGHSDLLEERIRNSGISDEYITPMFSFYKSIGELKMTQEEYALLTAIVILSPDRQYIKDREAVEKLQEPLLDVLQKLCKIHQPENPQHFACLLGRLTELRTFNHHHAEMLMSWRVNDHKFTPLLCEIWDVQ
Experimental: FXR Transactivation Assay
pGL4.35 [luc2P/9XGAL4 UAS/Hygro]
Steady-Glo™ Luciferase Assay System
GW4064 as a positive control
(§1) • 1. Hek293T cells were plated at 1.1*10^6/ml into a 100 mm dish. • 2. […] Cells were incubated at 37° C. under 5% CO2 atmosphere. • 3. All of compounds were 3-fold serial diluted from 10 mM stock for 10 doses in DMSO. • 4. Transfer compound dilutions into 384 well assay plates using liquid workstation. • 5. Seed 25 ul HEK293T cells into 384 well assay plate (prepared step 4) at 0.6*10^5/ml. Cells were incubated at 37° C. under 5% CO2 atmosphere overnight. • 6. Add 25 ul steady-Glo™ Luciferase Assay Reagent into each well of 384-well assay plate. • 7. […] Calculate EC50 by fitting % Activity values and log of compound concentrations to nonlinear regression (dose response−variable slope) with Graphpad 5.0. FXR Coactivator Assay Reagents: LanthaScreen™ TR-FRET Farnesoid X Receptor Coactivator Assay GW4064 as a positive control Process: • 1. All of compounds were 3-fold serial diluted from 10 mM stock for 10 doses in DMSO. • 2. Dilute each 100× agonist serial dilution to 2× using Complete Coregulator buffer G. • 3. Transfer 10 μl of each of the 2× agonist serial dilutions to 384 well assay plates. • 4. Add 5 μl of 4×FXR-LBD to 384 well assay plates. • 5. […] Incubate at room temperature protected from light. • 7. […] Calculate EC50 by fitting % Activity values and log of compound concentrations to nonlinear regression (dose response−variable slope) with Graphpad 5.0.

[2] = molecular target: T2, FXR-LBD (Homo sapiens, UniProt Q96RI1); test: FXR Coactivator Assay (LanthaScreen TR-FRET); format: biochemical
T2 construct: Add 5 μl of 4×FXR-LBD to 384 well assay plates; purchased
T2 sequence (Q96RI1 262-486 limits assumed): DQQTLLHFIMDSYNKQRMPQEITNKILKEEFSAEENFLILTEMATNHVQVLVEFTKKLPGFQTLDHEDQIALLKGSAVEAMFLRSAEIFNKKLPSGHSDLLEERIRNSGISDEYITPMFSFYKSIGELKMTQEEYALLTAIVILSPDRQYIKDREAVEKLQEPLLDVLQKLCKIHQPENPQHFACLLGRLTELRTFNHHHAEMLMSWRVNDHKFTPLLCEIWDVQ
Experimental: as §1

| EC50 [1] [nM] | EC50 [2] [nM] | SMILES |
| --- | --- | --- |
| 10 to 100 | 10 to 100 | CCC1CN(Cc2c(-c3c(Cl)cccc3Cl)noc2C(C)C)CCN1c1nc2c(OC)cc(C(=O)O)cc2s1 (stereo not shown) [II-18] |
| 101 to 400 | 10 to 100 | COc1cc(C(N)=O)cc2sc(N3CCN(Cc4c(-c5c(Cl)cccc5Cl)noc4C(C)C)CC3)nc12 [VIII-01] |
